This data set relates to Caco-2 cell monolayers. Type of data set: in vitro ADME. The text has this: Alternatively, the in vitro transporter affinity of a drug substance can be determined and approximated by a Caco-2 cell assay as described, e.g., in […] et al., Pharm. Act. Helv. 71, 309-327 (1996), or as illustrated herein in the Examples. The identification of the transporter protein and the efficacy of a compound to inhibit the efflux system involved may as well be determined in the Caco-2 cell assay. […] Caco-2 cell monolayers grown on PET filters for 21-25 days are used for the transport experiments. The flux of compounds across Caco-2 cell monolayers grown on PET filters as well as across PET filters alone without Caco-2 cells is determined as follows: […] To start the experiment, the medium in the donor compartment (0.35 mL for apical and 1.15 mL for basolateral sides) is replaced with donor solution (compound in HBSS, when relevant containing inhibitor of interest) pre-incubated at 37° C. Aliquots of 150 μL are removed from the donor and the acceptor side after about 1 and 120 min. Transport experiments in both apical-to-basolateral and basolateral-to-apical directions are performed in triplicate at 37° C. in an incubator without shaking. […] Radioactive samples are analyzed by liquid scintillation counting. All other non-radiolabeled samples are kept frozen at -20° C. until analysis by liquid chromatography/tandem mass spectrometry (LC-MS/MS). Transport values of the compounds tested are determined using the following equation (Artursson et al., Biochem. Biophys. Res. Comm. 175: 880-885, 1991): where Papp (cm/min) is the apparent permeability coefficient, ΔQ is the amount of compound found in the acceptor compartment at time t, Δt (min) is the incubation time period, C0 (μg/mL) is the initial concentration of the compound in the donor compartment and A (cm^2) is the surface area of the membrane. […] Under the conditions of this study, the LOQ of absolute radioactivity is 2 dpm for [^14C]-labeled Aliskiren corresponding to 12 nmol/L. Papp values are presented as means±standard deviations of the transport experiments performed (n=3). […]

A value given as a limit tells only on which side of the number the result lay.

In the case of `COCCCOc1cc(C[C@@H](C[C@H](N)[C@@H](O)C[C@H](C(=O)NCC(C)(C)C(N)=O)C(C)C)C(C)C)ccc1OC` [Aliskiren, (2S,4S,5S,7S)-5-amino-4-hydroxy-2-isopropyl-7-[4-methoxy-3-(3-methoxy-propoxy)-benzyl]-8-methyl-nonanoic acid (2-carbamoyl-2-methyl-propyl)-amide hemifumarate], the efflux substrate identification result (Caco-2) is “substrate for a prominent efflux system”. The same compound came in with an intrinsic permeability (human, Caco-2, 120 min) below 80%. For the compound `OC[C@@H](O)[C@@H](O)[C@H](O)[C@H](O)CO` [Mannitol], for the setting “human, Caco-2, 120 min”, the “apical to basolateral flux of marker (Papp, below threshold)” value was below 0.5 ×10⁻⁶ cm/s.

For the origin of these results see US20100234467A1, “METHODS FOR IMPROVING BIOAVAILABILITY OF A RENIN INHIBITOR” (priority 2006, published 2010).
